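Five concentrations, 48 hours, 96-well plates. GI50 is the concentration that inhibits growth by half.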 The source made the active and inactive calls. Cut-off read from the data, not from the text of the source: active = GI50 up to about 1.1 µM and inactive = higher.
How the values were obtained:
Assay in all cases: NCI tumour cell line growth inhibition, 48 h
786-0 = test system: 786-0
A498 = test system: A498
A549 = test system: A549
ACHN = test system: ACHN
BT-549 = test system: BT-549
CAKI-1 = test system: CAKI-1
CCRF-CEM = test system: CCRF-CEM
DU-145 = test system: DU-145
EKVX = test system: EKVX
HCT-116 = test system: HCT-116
HCT-15 = test system: HCT-15
HL-60 = test system: HL-60
HOP-62 = test system: HOP-62
HOP-92 = test system: HOP-92
HT-29 = test system: HT-29
Hs-578T = test system: Hs-578T
IGROV-1 = test system: IGROV-1
K562 = test system: K562
KM12 = test system: KM12
LOX IMVI = test system: LOX IMVI
M14 = test system: M14
MDA-MB-231 = test system: MDA-MB-231
MDA-MB-435 = test system: MDA-MB-435
MDA-N = test system: MDA-N
MOLT-4 = test system: MOLT-4
Malme-3M = test system: Malme-3M
NCI-H226 = test system: NCI-H226
NCI-H23 = test system: NCI-H23
NCI-H460 = test system: NCI-H460
NCI-H522 = test system: NCI-H522
NCI/ADR-RES = test system: NCI/ADR-RES
OVCAR-3 = test system: OVCAR-3
OVCAR-4 = test system: OVCAR-4
OVCAR-5 = test system: OVCAR-5
OVCAR-8 = test system: OVCAR-8
PC-3 = test system: PC-3
RPMI-8226 = test system: RPMI-8226
RXF 393 = test system: RXF 393
SF-268 = test system: SF-268
SF-295 = test system: SF-295
SK-MEL-28 = test system: SK-MEL-28
SK-MEL-2 = test system: SK-MEL-2
SK-MEL-5 = test system: SK-MEL-5
SN12C = test system: SN12C
SNB-19 = test system: SNB-19
SR = test system: SR
SW-620 = test system: SW-620
T47D = test system: T47D
TK-10 = test system: TK-10
U-251 = test system: U-251
UACC-257 = test system: UACC-257
UACC-62 = test system: UACC-62
UO-31 = test system: UO-31
COLO 205 = test system: COLO 205
HCC 2998 = test system: HCC 2998
MCF7 = test system: MCF7
SK-OV-3 = test system: SK-OV-3
SNB-75 = test system: SNB-75

Measured: GI50

O=[N+]([O-])c1cc(-c2ccc([As](=O)(O)O)cc2)ccc1[As](=O)(O)O
> 100 µM: HCT-15
inactive: 786-0 > 100 µM | A498 > 100 µM | A549 > 100 µM | ACHN > 100 µM | BT-549 > 100 µM | CAKI-1 > 100 µM | CCRF-CEM > 100 µM | DU-145 > 100 µM | EKVX > 100 µM | HCT-116 > 100 µM | HL-60 > 100 µM | HOP-62 > 100 µM | HOP-92 > 100 µM | HT-29 > 100 µM | Hs-578T > 100 µM | IGROV-1 > 100 µM | K562 > 100 µM | KM12 > 100 µM | LOX IMVI > 100 µM | M14 > 100 µM | MDA-MB-231 > 100 µM | MDA-MB-435 > 100 µM | MDA-N > 100 µM | MOLT-4 > 100 µM | Malme-3M > 100 µM | NCI-H226 > 100 µM | NCI-H23 > 100 µM | NCI-H460 > 100 µM | NCI-H522 > 100 µM | NCI/ADR-RES > 100 µM | OVCAR-3 > 100 µM | OVCAR-4 > 100 µM | OVCAR-5 > 100 µM | OVCAR-8 > 100 µM | PC-3 > 100 µM | RPMI-8226 > 100 µM | RXF 393 > 100 µM | SF-268 > 100 µM | SF-295 > 100 µM | SK-MEL-28 > 100 µM | SK-MEL-2 > 100 µM | SK-MEL-5 > 100 µM | SN12C > 100 µM | SNB-19 > 100 µM | SR > 100 µM | SW-620 > 100 µM | T47D > 100 µM | TK-10 > 100 µM | U-251 > 100 µM | UACC-257 > 100 µM | UACC-62 > 100 µM | UO-31 > 100 µM

COc1cc2nc(-c3ccc4ccccc4c3)nc(O)c2cc1OC
> 100 µM: HCT-15
inactive: 786-0 22.9 µM | A498 72.9 µM | A549 > 100 µM | ACHN 48.8 µM | BT-549 > 100 µM | CAKI-1 > 100 µM | CCRF-CEM > 100 µM | COLO 205 > 100 µM | DU-145 > 100 µM | EKVX > 100 µM | HCC 2998 > 100 µM | HCT-116 > 100 µM | HL-60 > 100 µM | HOP-62 19 µM | HOP-92 37.5 µM | HT-29 > 100 µM | Hs-578T 53.2 µM | IGROV-1 > 100 µM | K562 > 100 µM | KM12 > 100 µM | LOX IMVI > 100 µM | M14 > 100 µM | MCF7 > 100 µM | MDA-MB-231 > 100 µM | MDA-N > 100 µM | MOLT-4 > 100 µM | Malme-3M 49.2 µM | NCI-H226 > 100 µM | NCI-H23 49.2 µM | NCI-H460 > 100 µM | NCI-H522 56.1 µM | NCI/ADR-RES 69.5 µM | OVCAR-3 > 100 µM | OVCAR-4 42.9 µM | OVCAR-5 > 100 µM | OVCAR-8 43.2 µM | PC-3 > 100 µM | RPMI-8226 > 100 µM | RXF 393 41.7 µM | SF-268 19.1 µM | SF-295 48.9 µM | SK-MEL-2 42.8 µM | SK-MEL-5 > 100 µM | SK-OV-3 > 100 µM | SN12C > 100 µM | SNB-19 23.8 µM | SNB-75 13.8 µM | SR > 100 µM | T47D > 100 µM | UACC-257 > 100 µM | UACC-62 99.3 µM | UO-31 > 100 µM

— ChEMBL document CHEMBL1201862, “PubChem BioAssay data set” (2004)
